Assay results: ChEMBL document CHEMBL1138037, “Novel sst2-selective somatostatin agonists. Three-dimensional consensus structure by NMR” (J Med Chem, 2006)
Positions of bridges follow the written chain, without caps; N, C: chain ends. Non-standard residues stand in square brackets, D forms with d. Residues, ends and D or L forms follow the SMILES beside them.

What was measured:
[1] = target: Somatostatin receptor type 5 (Homo sapiens, UniProt P35346); test: Inhibition of [125I](Leu8,DTrp22,Tyr25)-SRIF28 binding to human sst5
Chain of Somatostatin receptor type 5 (P35346 whole entry): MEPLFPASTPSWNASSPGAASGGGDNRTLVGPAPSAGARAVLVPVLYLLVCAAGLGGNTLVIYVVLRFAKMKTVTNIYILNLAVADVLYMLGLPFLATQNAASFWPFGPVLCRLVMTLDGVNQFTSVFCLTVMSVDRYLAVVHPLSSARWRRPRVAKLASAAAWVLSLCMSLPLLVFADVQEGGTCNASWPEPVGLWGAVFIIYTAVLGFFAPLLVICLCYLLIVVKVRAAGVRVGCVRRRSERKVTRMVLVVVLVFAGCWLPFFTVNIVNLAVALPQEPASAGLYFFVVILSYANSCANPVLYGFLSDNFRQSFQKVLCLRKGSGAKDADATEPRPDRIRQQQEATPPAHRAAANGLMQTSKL

[2] = target: Somatostatin receptor type 2 (Homo sapiens, UniProt P30874); test: Inhibition of [125I](Leu8,DTrp22,Tyr25)-SRIF28 binding to human sst2
Chain of Somatostatin receptor type 2 (P30874 whole entry): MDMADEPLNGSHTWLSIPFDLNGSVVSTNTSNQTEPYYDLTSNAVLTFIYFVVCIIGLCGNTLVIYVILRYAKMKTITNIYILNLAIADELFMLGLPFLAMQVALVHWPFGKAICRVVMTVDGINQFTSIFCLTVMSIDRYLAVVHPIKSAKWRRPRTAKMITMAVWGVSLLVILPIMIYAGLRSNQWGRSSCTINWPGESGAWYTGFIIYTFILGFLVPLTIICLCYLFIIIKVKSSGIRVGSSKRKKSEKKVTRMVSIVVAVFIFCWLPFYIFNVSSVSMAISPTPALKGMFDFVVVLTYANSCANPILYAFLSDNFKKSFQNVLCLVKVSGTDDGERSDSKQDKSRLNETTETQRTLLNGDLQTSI

[3] = target: Somatostatin receptor type 3 (Homo sapiens, UniProt P32745); test: Inhibition of [125I](Leu8,DTrp22,Tyr25)-SRIF28 binding to human sst3
Chain of Somatostatin receptor type 3 (P32745 whole entry): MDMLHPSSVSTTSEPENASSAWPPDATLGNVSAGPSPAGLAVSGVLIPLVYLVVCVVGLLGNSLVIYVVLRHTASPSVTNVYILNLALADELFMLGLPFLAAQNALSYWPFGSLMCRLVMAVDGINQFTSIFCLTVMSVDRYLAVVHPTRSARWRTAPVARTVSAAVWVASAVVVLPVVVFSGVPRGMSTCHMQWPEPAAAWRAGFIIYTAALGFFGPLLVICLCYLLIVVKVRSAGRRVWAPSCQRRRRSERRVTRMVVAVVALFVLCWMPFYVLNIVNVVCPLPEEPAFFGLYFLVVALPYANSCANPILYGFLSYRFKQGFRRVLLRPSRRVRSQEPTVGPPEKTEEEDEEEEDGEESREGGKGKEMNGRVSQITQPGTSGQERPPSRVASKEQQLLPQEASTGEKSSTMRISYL

[4] = target: Somatostatin receptor type 1 (Homo sapiens, UniProt P30872); test: Inhibition of [125I](Leu8,DTrp22,Tyr25)-SRIF28 binding to human sst1
Chain of Somatostatin receptor type 1 (P30872 whole entry): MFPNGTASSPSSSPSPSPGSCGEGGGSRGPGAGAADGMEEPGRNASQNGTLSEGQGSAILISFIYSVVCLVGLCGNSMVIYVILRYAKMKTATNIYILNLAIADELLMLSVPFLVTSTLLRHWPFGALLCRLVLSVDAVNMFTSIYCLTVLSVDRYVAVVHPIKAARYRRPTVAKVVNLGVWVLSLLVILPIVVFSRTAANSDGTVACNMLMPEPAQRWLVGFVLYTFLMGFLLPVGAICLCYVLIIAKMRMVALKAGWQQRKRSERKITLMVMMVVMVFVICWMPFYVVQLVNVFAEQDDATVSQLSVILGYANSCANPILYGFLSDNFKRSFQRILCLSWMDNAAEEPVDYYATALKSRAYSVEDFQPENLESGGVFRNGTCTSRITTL

[5] = target: Somatostatin receptor type 4 (Homo sapiens, UniProt P31391); test: Inhibition of [125I](Leu8,DTrp22,Tyr25)-SRIF28 binding to human sst4
Chain of Somatostatin receptor type 4 (P31391 whole entry): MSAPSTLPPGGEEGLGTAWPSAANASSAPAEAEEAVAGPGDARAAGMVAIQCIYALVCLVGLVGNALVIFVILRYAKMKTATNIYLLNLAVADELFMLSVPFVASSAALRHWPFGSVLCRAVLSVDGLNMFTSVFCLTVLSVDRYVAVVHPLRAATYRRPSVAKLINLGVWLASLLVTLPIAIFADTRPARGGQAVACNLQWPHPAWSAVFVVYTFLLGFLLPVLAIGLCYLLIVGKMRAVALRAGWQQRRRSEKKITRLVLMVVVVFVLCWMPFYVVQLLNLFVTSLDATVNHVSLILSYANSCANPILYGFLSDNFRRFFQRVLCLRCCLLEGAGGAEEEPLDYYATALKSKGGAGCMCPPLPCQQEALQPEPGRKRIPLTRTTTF

Row | IC50 [1] | IC50 [2] | IC50 [3] | IC50 [4] | IC50 [5] | SMILES
1 |  | 2.2 nM | 38 nM | > 1000 nM | > 10000 nM | C[C@@H](O)[C@H](NC(=O)[C@@H]1CSSC[C@H](NC(=O)[C@H](N)Cc2ccccc2)C(=O)N[C@@H](Cc2ccccc2)C(=O)N[C@H](Cc2c[nH]c3ccccc23)C(=O)N[C@@H](CCCCN)C(=O)N[C@@H]([C@@H](C)O)C(=O)N1)C(N)=O
2 | 158 nM | 3.6 nM | 543 nM | > 1000 nM | > 1000 nM | C[C@@H]1NC(=O)[C@@H](NC(=O)[C@H](N)Cc2ccccc2)CSSC[C@@H](C(=O)N[C@H](C(N)=O)[C@@H](C)O)NC(=O)[C@H]([C@@H](C)O)NC(=O)[C@H](CCCCN)NC(=O)[C@@H](Cc2c[nH]c3ccccc23)NC1=O
3 | 109 nM | 7.5 nM | 942 nM | > 1000 nM |  | C[C@@H](O)[C@H](NC(=O)[C@@H]1CSSC[C@H](NC(=O)[C@H](Cc2ccccc2)NC(N)=O)C(=O)N[C@@H](Cc2ccc(NC(N)=O)cc2)C(=O)N[C@H](Cc2c[nH]c3ccccc23)C(=O)N[C@@H](CCCCN)C(=O)N[C@@H]([C@@H](C)O)C(=O)N1)C(N)=O

The remaining lines, values behind:

Row | SMILES | IC50 [1] | IC50 [2] | IC50 [3] | IC50 [4] | IC50 [5]
4 | C[C@@H](O)[C@H](NC(=O)[C@@H]1CSSC[C@H](NC(=O)[C@@H](Cc2ccccc2)NC(N)=O)C(=O)N[C@@H](Cc2ccc(NC(N)=O)cc2)C(=O)N[C@H](Cc2c[nH]c3ccccc23)C(=O)N[C@@H](CCCCN)C(=O)N[C@@H]([C@@H](C)O)C(=O)N1)C(N)=O | 77 nM | 6.2 nM | 210 nM | > 1000 nM | 
5 | CONC(=O)Nc1ccc(C[C@@H]2NC(=O)[C@@H](NC(=O)[C@@H](Cc3ccccc3)NC(N)=O)CSSC[C@@H](C(=O)N[C@H](C(N)=O)[C@@H](C)O)NC(=O)[C@H]([C@@H](C)O)NC(=O)[C@H](CCCCN)NC(=O)[C@@H](Cc3c[nH]c4ccccc34)NC2=O)cc1 | 539 nM | 3.1 nM | 958 nM | > 1000 nM | > 1000 nM
6 | C[C@@H](O)[C@@H]1NC(=O)[C@H](CCCCN)NC(=O)[C@@H](Cc2c[nH]c3ccccc23)NC(=O)[C@H](Cc2ccccc2)NC(=O)[C@@H](N)CSSC[C@@H](C(=O)O)NC1=O (H-CF[dW]KTC-OH; disulfide 1-6) | > 1000 nM | 378 nM | > 1000 nM | > 1000 nM | > 1000 nM
